{"source": "patent US20210108191A1", "about": "“Methods of Production of Biologically Active Lasso Peptides” (The Board of Trustees of the University of Illinois, priority 2017, published 2021)", "tested_on": "several pathogenic bacteria", "test": "activity against pathogenic bacteria", "type": "cell-based", "from_the_text": "RODEO can be used to assist in identifying lasso peptide gene clusters (FIG. 2). […] Several new lasso peptides have been characterized. (FIG. 3B-C). […] RODEO provides a roadmap for the discovery of new RiPPs and lasso peptide biosynthetic enzymology.", "note": "Bridges are numbered along the chain shown (N, C = ends). Where no end group is shown, it is not given here.", "data": [{"substance": "LP2006: rare disulfide-containing, class IV lasso peptide (SEQ ID NO:6) from Nocardiopsis alba (GRPNWGFENDWSCVRVC; disulfide 13-17 (inferred); also: lasso topology, ring places not given here)", "values": [{"measurement": "activity against pathogenic bacteria", "value": "active against several pathogenic bacteria"}]}]}
